Experimental data: patent publication US9476099B2 (TRUSTEES OF DARTMOUTH COLLEGE, priority 2012, dated 2016)
Where “and” joins values, the source holds several entries; their conditions need not be identical. Identical values can stand only once.

Tested on: NT2/D1-R1 control and DNMT3B knockdown cells
Test: Genome-wide expression analysis with PAM clusters, control and DNMT3B knockdown cells (Tables 8-14)
Conditions: sh-3B + aza
[1] = NT2/D1-R1 DNMT3B knockdown, decitabine 10 nM 3 days

## Nc1ncn([C@H]2C[C@H](O)[C@@H](CO)O2)c(=O)n1 [aza]
10 nM decitabine, 3 days
  ADAMTSL2 NM_014694 expression Mean: 202.775
  ADM NM_001124 expression Mean: 446.451
  AFMID NM_0010109 expression Mean: 172.091
  AHNAK NM_001620 expression Mean: 254.833
  ANAPC13 NM_015391 expression Mean: 377.446
  ANXA1 NM_000700 expression Mean: 394.045
  ANXA2 NM_0010028 expression Mean: 2283.3
  AW972815 expression Mean: 584.452
  BAG3 NM_004281 expression Mean: 816.89
  BCL11A NM_022893 expression Mean: 345.798
  BIRC5 NM_001168 expression Mean: 423.791
  BTG2 NM_006763 expression Mean: 242.194
  C9orf6 NM_017832 expression Mean: 227.753
  C10orf2 NM_021830 expression Mean: 399.327
  C10orf58 NM_032333 expression Mean: 578.039
  C16orf93 NM_0010149 expression Mean: 214.657
  CA2 NM_000067 expression Mean: 486.868
  CATSPER2 NM_172097 expression Mean: 970.22
  CAV1 NM_001753 expression Mean: 402.328
  CCND1 NM_053056 expression Mean: 1996.23
  CDKN1A NM_000389 expression Mean: 619.606
  CDX1 NM_001804 expression Mean: 237.199
  CEACAM1 NM_0010249 expression Mean: 156.04
  CIRH1A NM_032830 expression Mean: 1424.13
  CLCF1 NM_013246 expression Mean: 200.181
  CLDN10 NM_006984 expression Mean: 222.057
  CNN3 NM_001839 expression Mean: 732.909
  COL7A1 NM_000094 expression Mean: 746.239
  COL17A1 NM_000494 expression Mean: 230.283
  CRABP2 NM_001878 expression Mean: 1011.8
  CRIPT NM_014171 expression Mean: 325.647
  CTNNB1 NM_0010982 expression Mean: 258.366
  CUEDC1 NM_017949 expression Mean: 215.515
  CXCL14 NM_004887 expression Mean: 194.723
  CXXC1 NM_014593 expression Mean: 1121.15
  CXorf40A NM_178124 expression Mean: 203.34
  CYR61 NM_001554 expression Mean: 338.671
  DDX51 NM_175066 expression Mean: 1008.46
  DIMT1L NM_014473 expression Mean: 616.311
  DUSP5 NM_004419 expression Mean: 1159.02
  EBI3 NM_005755 expression Mean: 333.316
  EIF2C2 NM_012154 expression Mean: 367.506
  ELF3 NM_004433 expression Mean: 204.8
  ELF4 NM_001421 expression Mean: 365.338
  EMILIN2 NM_032048 expression Mean: 230.192
  EOMES NM_005442 expression Mean: 289.321
  FAM53C NM_016605 expression Mean: 1227.05
  FAM123B NM_152424 expression Mean: 759.762
  FLJ40504 NM_173624 expression Mean: 1376.6
  FOXO3 NM_201559 expression Mean: 274.369
  GAD1 NM_000817 expression Mean: 204.457
  GAD1 NM_013445 expression Mean: 246.924
  GALNAC4S-6 NM_015892 expression Mean: 540.521
  GEMIN4 NM_015721 expression Mean: 784.75
  GLIPR2 NM_022343 expression Mean: 227.407
  GNL3L NM_019067 expression Mean: 289.661
  GNL3 NM_206826 expression Mean: 1810.36
  GPATCH4 NM_182679 expression Mean: 927.016
  GPER NM_0010399 expression Mean: 176.693
  GPR56 NM_201524 expression Mean: 189.936
  GPR56 NM_201525 expression Mean: 205.229
  GPR177 NM_0010022 expression Mean: 158.032 and 231.861
  GPR177 NM_024911 expression Mean: 239.092
  GTF3C6 NM_138408 expression Mean: 454.993
  H2AFY NM_004893 expression Mean: 843.815
  HARS NM_002109 expression Mean: 1283.03
  HCLS1 NM_005335 expression Mean: 494.474
  HES2 NM_019089 expression Mean: 164.558
  HSPA1A NM_005346 expression Mean: 348.731
  HSPA8 NM_006597 expression Mean: 3799.27
  HSPA8 NM_153201 expression Mean: 4636.48
  HSPH1 NM_006644 expression Mean: 389.459
  ID3 NM_002167 expression Mean: 1623.89
  IER3 NM_003897 expression Mean: 406.859
  IL2RB NM_000878 expression Mean: 175.269
  ITPRIP NM_033397 expression Mean: 226.046
  JTV1 NM_006303 expression Mean: 1336.75
  KAT2A NM_021078 expression Mean: 704.033
  KIAA0101 NM_014736 expression Mean: 230.187
  KRT8 NM_002273 expression Mean: 2758.76
  LEFTY2 NM_003240 expression Mean: 2484.87
  LOC644422 XR_019449 expression Mean: 223.185
  LOC647954 XR_018676 expression Mean: 1052.7
  LOC728715 XM_0011282 expression Mean: 877.255
  M6PRBP1 NM_005817 expression Mean: 907.761
  MBNL3 NM_133486 expression Mean: 272.09
  MCM4 NM_005914 expression Mean: 2040.37
  MEPCE NM_019606 expression Mean: 354.1
  METTL1 NM_005371 expression Mean: 266.779
  MORF4L2 NM_012286 expression Mean: 2564.56
  MRTO4 NM_016183 expression Mean: 654.553
  MT1E NM_175617 expression Mean: 1985.42
  MTA2 NM_004739 expression Mean: 325.004
  MYOF NM_013451 expression Mean: 177.015
  MYOF NM_133337 expression Mean: 293.772
  NACC2 NM_144653 expression Mean: 245.995
  NAT5 NM_181528 expression Mean: 1059.57
  NBPF10 NM_0010376 expression Mean: 370.658
  NBPF10 NM_0010397 expression Mean: 345.645
  NEFH NM_021076 expression Mean: 407.674
  NFE2 NM_006163 expression Mean: 245.362
  NM_002467 expression Mean: 595.692
  NM_0010397 expression Mean: 405.052
  NM_138781 expression Mean: 305.526
  NODAL NM_018055 expression Mean: 1549.19
  NOP2 NM_0010337 expression Mean: 5354.42
  NOP56 NM_006392 expression Mean: 2368.5
  NP NM_000270 expression Mean: 340.821
  NR_002773 expression Mean: 394.199
  NR_003287 expression Mean: 182.319
  NTF3 NM_002527 expression Mean: 184.819
  NTS NM_006183 expression Mean: 457.501
  NUAK2 NM_030952 expression Mean: 225.181 and 195.684
  OAT NM_000274 expression Mean: 2711.86
  ODC1 NM_002539 expression Mean: 2404.47
  PAK1IP1 NM_017906 expression Mean: 603.531
  PEA15 NM_003768 expression Mean: 969.289
  PEG3 NM_006210 expression Mean: 256.384
  PITX1 NM_002653 expression Mean: 267.398
  PLAU NM_002658 expression Mean: 325.966
  PLEKHF1 NM_024310 expression Mean: 367.904
  POLR1C NM_203290 expression Mean: 414.276 and 557.268
  PPA2 NM_006903 expression Mean: 606.161
  PPAN NM_002566 expression Mean: 287.832
  RBM22 NM_018047 expression Mean: 700.828
  RNMTL1 NM_018146 expression Mean: 432.796
  RPL6 NM_0010246 expression Mean: 1608.44
  RRM2 NM_001034 expression Mean: 799.058
  RSL1D1 NM_015659 expression Mean: 1458.69
  RUNX3 NM_004350 expression Mean: 191.132
  SERPINE1 NM_000602 expression Mean: 246.121
  SERTAD1 NM_013376 expression Mean: 291.604
  SFXN4 NM_213649 expression Mean: 481.671
  SIDT2 NM_0010404 expression Mean: 326.437
  SLC20A1 NM_005415 expression Mean: 1225.68
  SNAPC4 NM_003086 expression Mean: 599.752
  SOCS2 NM_003877 expression Mean: 182.936 and 244.438
  SOX15 NM_006942 expression Mean: 1693.21
  SPANXD NM_145665 expression Mean: 121.39
  SPRYD5 NM_032681 expression Mean: 293.721
  SQSTM1 NM_003900 expression Mean: 885.073
  SRRT NM_015908 expression Mean: 2745.27
  SUSD2 NM_019601 expression Mean: 1694.29
  TAGLN NM_003186 expression Mean: 489.068
  TNFRSF12A NM_016639 expression Mean: 296.715
  TNFRSF13B NM_012452 expression Mean: 214.796
  TNPO1 NM_153188 expression Mean: 240.816
  TPRG1L NM_182752 expression Mean: 762.223
  TRIM8 NM_030912 expression Mean: 529.909
  TTC4 NM_004623 expression Mean: 851.239
  UTP14A NM_006649 expression Mean: 736.541
  WBSCR22 NM_017528 expression Mean: 958.822
  XM_0011261 expression Mean: 824.879
  XM_0011281 expression Mean: 1290.15
  XR_015970 expression Mean: 527.915
  XR_016703 expression Mean: 4025.84
  XR_017241 expression Mean: 5144.11
  XR_017543 expression Mean: 410.447
  ZDHHC6 NM_022494 expression Mean: 344.248
  ZHX2 NM_014943 expression Mean: 196.281
[1]
  A4GALT (NM_017436) gene expression, Mean: 279.705
  ABR (NM_001092) gene expression, Mean: 376.941
  ACACA (NM_198836) gene expression, Mean: 630.777
